# Results from ChEMBL document CHEMBL1201862, “PubChem BioAssay data set” (2004).
#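 Results reflect a 48-hour exposure of cells in 96-well plates to compound at five concentrations. GI50 is the concentration that inhibits growth by half.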 The source made the active and inactive calls. No stated cut-off is given here; in the data, active = GI50 up to about 1.1 µM and inactive = higher.
# Key:
# Experiment in all cases: NCI tumour cell line growth inhibition, 48 h
# [1] = tested on: 786-0
# [2] = tested on: A498
# [3] = tested on: A549
# [4] = tested on: ACHN
# [5] = tested on: BT-549
# [6] = tested on: CAKI-1
# [7] = tested on: CCRF-CEM
# [8] = tested on: COLO 205
# [9] = tested on: DU-145
# [10] = tested on: EKVX
# [11] = tested on: HCC 2998
# [12] = tested on: HCT-116
# [13] = tested on: HCT-15
# [14] = tested on: HL-60
# [15] = tested on: HOP-62
# [16] = tested on: HT-29
# [17] = tested on: Hs-578T
# [18] = tested on: IGROV-1
# [19] = tested on: K562
# [20] = tested on: KM12
# [21] = tested on: LOX IMVI
# [22] = tested on: M14
# [23] = tested on: MCF7
# [24] = tested on: MDA-MB-231
# [25] = tested on: MDA-MB-435
# [26] = tested on: MDA-N
# [27] = tested on: MOLT-4
# [28] = tested on: Malme-3M
# [29] = tested on: NCI-H226
# [30] = tested on: NCI-H23
# [31] = tested on: NCI-H460
# [32] = tested on: NCI-H522
# [33] = tested on: OVCAR-8
# [34] = tested on: PC-3
# [35] = tested on: RPMI-8226
# [36] = tested on: SF-268
# [37] = tested on: SF-295
# [38] = tested on: SF-539
# [39] = tested on: SK-MEL-28
# [40] = tested on: SK-MEL-5
# [41] = tested on: SK-OV-3
# [42] = tested on: SN12C
# [43] = tested on: SNB-19
# [44] = tested on: SNB-75
# [45] = tested on: SR
# [46] = tested on: SW-620
# [47] = tested on: T47D
# [48] = tested on: TK-10
# [49] = tested on: UACC-257
# [50] = tested on: UACC-62
# [51] = tested on: UO-31
# [52] = tested on: HOP-92
# [53] = tested on: NCI/ADR-RES
# [54] = tested on: OVCAR-3
# [55] = tested on: OVCAR-4
# [56] = tested on: OVCAR-5
# [57] = tested on: SK-MEL-2
# [58] = tested on: RXF 393
# [59] = tested on: U-251
compound,measurement,setting,value
Cc1nn(C(=O)Cc2ccccc2)c2c1C(c1ccc(O)cc1)SC(=N)N2 (stereo not drawn),GI50,[1],> 100 µM (inactive)
same,GI50,[2],> 100 µM (inactive)
same,GI50,[3],> 100 µM (inactive)
same,GI50,[4],> 100 µM (inactive)
same,GI50,[5],> 100 µM (inactive)
same,GI50,[6],> 100 µM (inactive)
same,GI50,[7],> 100 µM (inactive)
same,GI50,[8],> 100 µM (inactive)
same,GI50,[9],> 100 µM (inactive)
same,GI50,[10],> 100 µM (inactive)
same,GI50,[11],> 100 µM (inactive)
same,GI50,[12],> 100 µM (inactive)
same,GI50,[13],> 100 µM
same,GI50,[14],> 100 µM (inactive)
same,GI50,[15],> 100 µM (inactive)
same,GI50,[16],> 100 µM (inactive)
same,GI50,[17],> 100 µM (inactive)
same,GI50,[18],> 100 µM (inactive)
same,GI50,[19],> 100 µM (inactive)
same,GI50,[20],> 100 µM (inactive)
same,GI50,[21],> 100 µM (inactive)
same,GI50,[22],> 100 µM (inactive)
same,GI50,[23],> 100 µM (inactive)
same,GI50,[24],> 100 µM (inactive)
same,GI50,[25],> 100 µM (inactive)
same,GI50,[26],> 100 µM (inactive)
same,GI50,[27],> 100 µM (inactive)
same,GI50,[28],> 100 µM (inactive)
same,GI50,[29],> 100 µM (inactive)
same,GI50,[30],> 100 µM (inactive)
same,GI50,[31],> 100 µM (inactive)
same,GI50,[32],> 100 µM (inactive)
same,GI50,[33],> 100 µM (inactive)
same,GI50,[34],> 100 µM (inactive)
same,GI50,[35],> 100 µM (inactive)
same,GI50,[36],> 100 µM (inactive)
same,GI50,[37],> 100 µM (inactive)
same,GI50,[38],> 100 µM (inactive)
same,GI50,[39],> 100 µM (inactive)
same,GI50,[40],> 100 µM (inactive)
same,GI50,[41],> 100 µM (inactive)
same,GI50,[42],> 100 µM (inactive)
same,GI50,[43],> 100 µM (inactive)
same,GI50,[44],44.6 µM (inactive)
same,GI50,[45],> 100 µM (inactive)
same,GI50,[46],> 100 µM (inactive)
same,GI50,[47],> 100 µM (inactive)
same,GI50,[48],> 100 µM (inactive)
same,GI50,[49],> 100 µM (inactive)
same,GI50,[50],> 100 µM (inactive)
same,GI50,[51],> 100 µM (inactive)
N#Cc1c(N2CCC(O)C2)c2ccccc2n2c1nc1ccccc12 (stereo not drawn),GI50,[1],17.1 µM (inactive)
same,GI50,[2],31.3 µM (inactive)
same,GI50,[3],> 100 µM (inactive)
same,GI50,[4],18.2 µM (inactive)
same,GI50,[5],46.9 µM (inactive)
same,GI50,[6],37.9 µM (inactive)
same,GI50,[7],> 100 µM (inactive)
same,GI50,[8],> 100 µM (inactive)
same,GI50,[9],> 100 µM (inactive)
same,GI50,[10],> 100 µM (inactive)
same,GI50,[11],> 100 µM (inactive)
same,GI50,[12],> 100 µM (inactive)
same,GI50,[13],> 100 µM
same,GI50,[14],> 100 µM (inactive)
same,GI50,[15],18.6 µM (inactive)
same,GI50,[52],41.1 µM (inactive)
same,GI50,[16],> 100 µM (inactive)
same,GI50,[17],29.2 µM (inactive)
same,GI50,[18],69.2 µM (inactive)
same,GI50,[20],> 100 µM (inactive)
same,GI50,[21],> 100 µM (inactive)
same,GI50,[22],> 100 µM (inactive)
same,GI50,[23],> 100 µM (inactive)
same,GI50,[24],19.4 µM (inactive)
same,GI50,[25],> 100 µM (inactive)
same,GI50,[26],> 100 µM (inactive)
same,GI50,[27],> 100 µM (inactive)
same,GI50,[28],40.4 µM (inactive)
same,GI50,[30],67.6 µM (inactive)
same,GI50,[31],> 100 µM (inactive)
same,GI50,[32],47.5 µM (inactive)
same,GI50,[53],65.3 µM (inactive)
same,GI50,[54],> 100 µM (inactive)
same,GI50,[55],20.5 µM (inactive)
same,GI50,[56],> 100 µM (inactive)
same,GI50,[33],45.7 µM (inactive)
same,GI50,[34],> 100 µM (inactive)
same,GI50,[35],> 100 µM (inactive)
same,GI50,[36],43.7 µM (inactive)
same,GI50,[37],31 µM (inactive)
same,GI50,[38],54.8 µM (inactive)
same,GI50,[39],> 100 µM (inactive)
same,GI50,[57],43.4 µM (inactive)
same,GI50,[40],> 100 µM (inactive)
same,GI50,[42],72.4 µM (inactive)
same,GI50,[43],32.1 µM (inactive)
same,GI50,[44],25.1 µM (inactive)
same,GI50,[46],> 100 µM (inactive)
same,GI50,[47],64.3 µM (inactive)
same,GI50,[48],51.1 µM (inactive)
same,GI50,[49],> 100 µM (inactive)
same,GI50,[50],> 100 µM (inactive)
same,GI50,[51],> 100 µM (inactive)
CC(=O)N[C@@H](Cc1ccc(O)cn1)C(=O)NCc1cccc(Cl)c1,GI50,[1],> 100 µM (inactive)
same,GI50,[2],> 100 µM (inactive)
same,GI50,[3],> 100 µM (inactive)
same,GI50,[4],> 100 µM (inactive)
same,GI50,[5],> 100 µM (inactive)
same,GI50,[6],> 100 µM (inactive)
same,GI50,[7],> 100 µM (inactive)
same,GI50,[8],> 100 µM (inactive)
same,GI50,[9],> 100 µM (inactive)
same,GI50,[10],> 100 µM (inactive)
same,GI50,[11],> 100 µM (inactive)
same,GI50,[12],> 100 µM (inactive)
same,GI50,[13],> 100 µM
same,GI50,[14],37.8 µM (inactive)
same,GI50,[15],> 100 µM (inactive)
same,GI50,[16],> 100 µM (inactive)
same,GI50,[17],> 100 µM (inactive)
same,GI50,[18],> 100 µM (inactive)
same,GI50,[19],> 100 µM (inactive)
same,GI50,[20],> 100 µM (inactive)
same,GI50,[21],> 100 µM (inactive)
same,GI50,[22],> 100 µM (inactive)
same,GI50,[23],> 100 µM (inactive)
same,GI50,[25],> 100 µM (inactive)
same,GI50,[26],> 100 µM (inactive)
same,GI50,[27],> 100 µM (inactive)
same,GI50,[29],> 100 µM (inactive)
same,GI50,[30],> 100 µM (inactive)
same,GI50,[31],> 100 µM (inactive)
same,GI50,[32],> 100 µM (inactive)
same,GI50,[53],> 100 µM (inactive)
same,GI50,[54],> 100 µM (inactive)
same,GI50,[55],> 100 µM (inactive)
same,GI50,[56],> 100 µM (inactive)
same,GI50,[34],> 100 µM (inactive)
same,GI50,[35],> 100 µM (inactive)
same,GI50,[58],> 100 µM (inactive)
same,GI50,[36],> 100 µM (inactive)
same,GI50,[37],> 100 µM (inactive)
same,GI50,[38],> 100 µM (inactive)
same,GI50,[39],> 100 µM (inactive)
same,GI50,[57],> 100 µM (inactive)
same,GI50,[40],> 100 µM (inactive)
same,GI50,[41],> 100 µM (inactive)
same,GI50,[42],> 100 µM (inactive)
same,GI50,[43],> 100 µM (inactive)
same,GI50,[45],> 100 µM (inactive)
same,GI50,[46],> 100 µM (inactive)
same,GI50,[47],> 100 µM (inactive)
same,GI50,[48],> 100 µM (inactive)
same,GI50,[59],> 100 µM (inactive)
same,GI50,[49],> 100 µM (inactive)
same,GI50,[50],> 100 µM (inactive)
same,GI50,[51],> 100 µM (inactive)
